We go through 21 molecules from patent US20250326718A1, “4-PHENYL-2-PYRROLIDINONES AND METHODS OF USING THEREOF” (North Carolina State University, priority 2022, published 2025).

Common to all, as to format: cell-based
One test concerns MSSA (ATCC 25923). The test can be described thus: Broth microdilution MIC, MSSA ATCC 25923. The settings on record: Staphylococcus aureus; Tables 2-4; standardized conditions; read-out: MIC (S. aureus 25923). In general terms: In broth dilution the organism is exposed to a series of concentrations in liquid medium.
A further test relates to S. aureus 29213. Put plainly: Broth microdilution MIC, S. aureus 29213. As to conditions: Staphylococcus aureus.
A further test concerns MRSA (ATCC 33591). Put plainly: Broth microdilution MIC, MRSA ATCC 33591. The settings on record: Staphylococcus aureus; Tables 2-4; standardized conditions. As to the method: General information—Biological Assays. Methicillin-resistant and methicillin sensitive Staphylococcus aureus (MRSA and MSSA respectively) strains were obtained from the Laboratory of Professor Christian Melander (NCSU) (ATCC BAA 44 and 33591) and Dr. Jessica Gilbertie (ATCC 25923). Bacteria were kept in frozen stocks on glycerol at −80° C. until use. Bacteria was streaked onto tryptic-soy agar for colony isolation. Mueller-Hinton broth (MHB, 211443-BD), tryptic soy broth (TSB, Remel: R455052) and D-glucose (CAS: 492-62-6) were purchased from Fisher Scientific. Tryptic soy agar (TSA, cat. #22091) and Linezolid (cat. #P70014) were purchased from Sigma-Aldrich. Bacteria for biofilm inhibition were cultured overnight in TSB-G (tryptic soy broth with 0.5% glucose supplement) in 96 well plates. All assays were run in duplicate and repeated at least two separate times for MIC assays and at least three separate times for biofilm inhibition. All compounds were dissolved in molecular biology grade DMSO as 10 mM stock solutions. Optical densities were measured using a Thermo Scientific Genesys 20 spectrophotometer. Data for biofilm inhibition were collected using a BioTek ELx808 Microplate Reader. All graphs were generated and analyzed using GraphPad Prism 7.
Broth microdilution method for determination of minimum inhibitory concentrations. As prescribed by the Clinical and Laboratory Standards Institute (CLSI) M07-A8, Vol. 29 (2) MSSA (ATCC 25923) and MRSA (ATCC BAA 44 and 33591) was grown in MHB for 6-8 h; this culture was used to inoculate fresh MHB (5×10^5 CFU/mL). The resulting bacterial suspension was aliquoted (1 mL) into 1.5 mL Eppendorf tubes and compound was added from a 10 mM DMSO stock to achieve the desired initial starting concentration (typically 128 μg/mL). Linezolid (from a 10 mM DMSO stock) was used as a positive control. Inoculated media not treated with compound served as the negative control. The MIC was determined by microbroth dilution following the CLSI guidelines. The MIC was defined as the lowest concentration of antibiotic with no visible growth. The plate was sealed and incubated under stationary conditions at 37° C.
The antimicrobial activity of Compounds 1-15 was assessed initially against MSSA (ATCC 25923) and MRSA (ATCC 33591) strains. It was observed that almost all these compounds precipitated in aqueous solution at concentrations equal or higher than 8-16 μg/mL. In order to obtain preliminary results on the antimicrobial activity for these compounds, the standard conditions of the antimicrobial assays used where modified to favor the water solubility of these compounds.

Setting [1] is: Tables 3-4, standardized conditions, read-out: MIC (S. aureus 29213).
Where [2] appears, read: Table 2, standardized conditions, read-out: MIC (S. aureus 25913).

SMILES strings stand for the structures. In brackets after ≈: the same amount, converted by molar mass. Read-outs that look alike come from different tables or passages of the source.

For `CC1C(c2ccc(C(F)(F)F)cc2)=C(O)C(=O)N1c1ccc(Br)cc1` (stereo not drawn) [Compound 41, 1-(4-Bromophenyl)-3-hydroxy-5-methyl-4-(4-(trifluoromethyl)phenyl)-1,5-dihydro-2H-pyrrol-2-one], the minimum inhibitory concentration (MIC) in the test on MSSA (ATCC 25923) is above 128 µg/mL; with S. aureus 29213 (setting [1]) it was above 128 µg/mL; in the test with MRSA (ATCC 33591), 32 µg/mL (≈ 77.6 µM).
As for `CCC1C(c2ccc(C(F)(F)F)cc2)=C(O)C(=O)N1c1ccc(N)cc1` (stereo not drawn) [Compound 20, 1-(4-Aminophenyl)-5-ethyl-3-hydroxy-4-(4-(trifluoromethyl)phenyl)-1,5-dihydro-2H-pyrrol-2-one], the minimal inhibitory concentration (MIC) with MSSA (ATCC 25923) was above 128 µg/mL; in the test on S. aureus 29213 (setting [2]), above 128 µg/mL; against MRSA (ATCC 33591) it was 64 µg/mL (≈ 177 µM).
As to `O=C1C(O)=C(c2ccc(C(F)(F)F)cc2)C([C@H](O)c2ccccc2)N1c1ccc(Cl)cc1` (stereo partly drawn) [Compound 54, 1-(4-Chlorophenyl)-3-hydroxy-5-((R)-hydroxy(phenyl)methyl)-4-(4-(trifluoromethyl)phenyl)-1,5-dihydro-2H-pyrrol-2-one], the MIC is 4 µg/mL (≈ 8.7 µM) in the test with MSSA (ATCC 25923), 4 µg/mL (≈ 8.7 µM) in the test with S. aureus 29213 (setting [1]) and 4 to 8 µg/mL (≈ 8.7 to 17.4 µM) in the test on MRSA (ATCC 33591).
For the molecule `CCC1C(c2ccc(C(F)(F)F)cc2)=C(O)C(=O)N1CCN(CCN)CCN1C(=O)C(O)=C(c2ccc(C(F)(F)F)cc2)C1CC` (stereo not drawn) [Compound 39, 1,1′-(((2-aminoethyl)azanediyl)bis(ethane-2,1-diyl))bis(5-ethyl-3-hydroxy-4-(4-(trifluoromethyl)phenyl)-1,5-dihydro-2H-pyrrol-2-one)], the MIC in the test on MSSA (ATCC 25923), in the test on S. aureus 29213 (setting [1]) and against MRSA (ATCC 33591) was 64 µg/mL (≈ 97.8 µM) throughout.
Consider `O=C1C(O)=C(c2ccc(C(F)(F)F)cc2)C([C@H](O)c2ccccc2)N1c1ccccc1` (stereo partly drawn) [Compound 51, 3-Hydroxy-5-((R)-hydroxy(phenyl)methyl)-1-phenyl-4-(4-(trifluoromethyl)phenyl)-1,5-dihydro-2H-pyrrol-2-one], for which the minimum inhibitory concentration (MIC) with MSSA (ATCC 25923) came out at 64 µg/mL (≈ 150 µM); in the test on S. aureus 29213 (setting [1]), 32 µg/mL (≈ 75.2 µM); with MRSA (ATCC 33591), 32 µg/mL (≈ 75.2 µM).
Regarding `CCC1C(c2ccc(C(F)(F)F)cc2)=C(O)C(=O)N1CCCNCCCCN` (stereo not drawn) [Compound 23, 1-(3-((4-Aminobutyl)amino)propyl)-5-ethyl-3-hydroxy-4-(4-(trifluoromethyl)phenyl)-1,5-dihydro-2H-pyrrol-2-one], the minimum inhibitory concentration (MIC) in the test on MSSA (ATCC 25923) is 16 µg/mL (≈ 40.1 µM); with S. aureus 29213 (setting [2]) it was 64 µg/mL (≈ 160 µM); against MRSA (ATCC 33591) it was 32 to 64 µg/mL (≈ 80.1 to 160 µM).
For `CCC1C(c2ccc(C(F)(F)F)cc2)=C(O)C(=O)N1CCCCCCN` (stereo not drawn) [Compound 18, 1-(6-Aminohexyl)-5-ethyl-3-hydroxy-4-(4-(trifluoromethyl)phenyl)-1,5-dihydro-2H-pyrrol-2-one], in that order: above 128 µg/mL, above 128 µg/mL and above 128 µg/mL.
Consider `O=C1C(O)=C(c2ccc(C(F)(F)F)cc2)C(c2cccs2)N1c1ccc(Br)cc1` (stereo not drawn) [Compound 45, 1-(4-Bromophenyl)-3-hydroxy-5-(thiophen-2-yl)-4-(4-(trifluoromethyl)phenyl)-1,5-dihydro-2H-pyrrol-2-one], for which the minimal inhibitory concentration (MIC) in the test with MSSA (ATCC 25923) was above 128 µg/mL; in the test on S. aureus 29213 (setting [1]), 128 µg/mL (≈ 266 µM); in the test with MRSA (ATCC 33591), above 128 µg/mL.
`CCC1C(c2ccc(C(F)(F)F)cc2)=C(O)C(=O)N1CCCCN` (stereo not drawn) [Compound 17, 1-(4-Aminobutyl)-5-ethyl-3-hydroxy-4-(4-(trifluoromethyl)phenyl)-1,5-dihydro-2H-pyrrol-2-one]: the MIC with MSSA (ATCC 25923), in the test with S. aureus 29213 (setting [2]) and in the test on MRSA (ATCC 33591) was above 128 µg/mL in each case.
With `CCC1C(c2ccc(C(F)(F)F)cc2)=C(O)C(=O)N1CCN(CCN)CCN` (stereo not drawn) [Compound 38, 1-(2-(bis(2-aminoethyl)amino)ethyl)-5-ethyl-3-hydroxy-4-(4-(trifluoromethyl)phenyl)-1,5-dihydro-2H-pyrrol-2-one], the minimal inhibitory concentration (MIC) with MSSA (ATCC 25923), in the test on S. aureus 29213 (setting [1]) and in the test on MRSA (ATCC 33591) was 64 µg/mL (≈ 160 µM) in each case.
On to `CCC1C(c2ccc(C(F)(F)F)cc2)=C(O)C(=O)N1CCCCN1C(=O)C(O)=C(c2ccc(C(F)(F)F)cc2)C1CC` (stereo not drawn) [Compound 26, 1,1′-(Butane-1,4-diyl)bis(5-ethyl-3-hydroxy-4-(4-(trifluoromethyl)phenyl)-1,5-dihydro-2H-pyrrol-2-one)], for which the MIC in the test on MSSA (ATCC 25923), with S. aureus 29213 (setting [2]) and with MRSA (ATCC 33591) was above 128 µg/mL in each case.
Regarding `CCC1C(c2ccc(C(F)(F)F)cc2)=C(O)C(=O)N1CCOCCN1C(=O)C(O)=C(c2ccc(C(F)(F)F)cc2)C1CC` (stereo not drawn) [Compound 30, 1,1′-(Oxybis(ethane-2,1-diyl))bis(5-ethyl-3-hydroxy-4-(4-(trifluoromethyl)phenyl)-1,5-dihydro-2H-pyrrol-2-one)], the MIC with MSSA (ATCC 25923), in the test with S. aureus 29213 (setting [2]) and in the test with MRSA (ATCC 33591) was above 128 µg/mL throughout.
As to `COc1ccc(N2C(=O)C(O)=C(c3ccc(C(F)(F)F)cc3)C2[C@H](O)c2ccccc2)cc1` (stereo partly drawn) [Compound 52, 3-Hydroxy-5-((R)-hydroxy(phenyl)methyl)-1-(4-methoxyphenyl)-4-(4-(trifluoromethyl)phenyl)-1,5-dihydro-2H-pyrrol-2-one], the minimal inhibitory concentration (MIC) in the test on MSSA (ATCC 25923), in the test on S. aureus 29213 (setting [1]) and against MRSA (ATCC 33591) was above 128 µg/mL each time.
Regarding `CCC1C(c2ccc(C(F)(F)F)cc2)=C(O)C(=O)N1C1CCC(N2C(=O)C(O)=C(c3ccc(C(F)(F)F)cc3)C2CC)CC1` (stereo not drawn) [Compound 28, 1,1′-((1r,4r)-Cyclohexane-1,4-diyl)bis(5-ethyl-3-hydroxy-4-(4-(trifluoromethyl)phenyl)-1,5-dihydro-2H-pyrrol-2-one)], the MIC was found to be 8 µg/mL (≈ 12.8 µM) with MSSA (ATCC 25923), 32 µg/mL (≈ 51.4 µM) in the test on S. aureus 29213 (setting [2]) and 32 µg/mL (≈ 51.4 µM) against MRSA (ATCC 33591).
With `CCC1C(c2ccc(C(F)(F)F)cc2)=C(O)C(=O)N1CCN(CCN1C(=O)C(O)=C(c2ccc(C(F)(F)F)cc2)C1CC)CCN1C(=O)C(O)=C(c2ccc(C(F)(F)F)cc2)C1CC` (stereo not drawn) [Compound 40, 1,1′,1″-(nitrilotris(ethane-2,1-diyl))tris(5-ethyl-3-hydroxy-4-(4-(trifluoromethyl)phenyl)-1,5-dihydro-2H-pyrrol-2-one)], the minimal inhibitory concentration (MIC) with MSSA (ATCC 25923), in the test with S. aureus 29213 (setting [1]) and in the test on MRSA (ATCC 33591) was above 128 µg/mL in each case.
`O=C1C(O)=C(c2ccc(C(F)(F)F)cc2)C(C2CC2)N1c1ccc(Br)cc1` (stereo not drawn) [Compound 43, 1-(4-Bromophenyl)-5-cyclopropyl-3-hydroxy-4-(4-(trifluoromethyl)phenyl)-1,5-dihydro-2H-pyrrol-2-one]: the minimal inhibitory concentration (MIC) was above 128 µg/mL with MSSA (ATCC 25923), above 128 µg/mL with S. aureus 29213 (setting [1]) and 64 µg/mL (≈ 146 µM) against MRSA (ATCC 33591).
As for `O=C1C(O)=C(c2ccc(C(F)(F)F)cc2)C(C(O)CO)N1c1ccc(Br)cc1` (stereo not drawn) [Compound 49, 1-(4-Bromophenyl)-5-(1,2-dihydroxyethyl)-3-hydroxy-4-(4-(trifluoromethyl)phenyl)-1,5-dihydro-2H-pyrrol-2-one], the MIC in the test with MSSA (ATCC 25923), with S. aureus 29213 (setting [1]) and in the test with MRSA (ATCC 33591) was above 128 µg/mL in each case.
Consider `CCC1C(c2ccc(C(F)(F)F)cc2)=C(O)C(=O)N1C1CCC(N)CC1` (stereo not drawn) [Compound 19, 1-((1r,4r)-4-Aminocyclohexyl)-5-ethyl-3-hydroxy-4-(4-(trifluoromethyl)phenyl)-1,5-dihydro-2H-pyrrol-2-one], for which the results for the minimal inhibitory concentration (MIC) with MSSA (ATCC 25923), in the test on S. aureus 29213 (setting [2]) and in the test on MRSA (ATCC 33591) were 64 µg/mL (≈ 174 µM), 128 µg/mL (≈ 347 µM) and 128 µg/mL (≈ 347 µM), respectively.
For the molecule `CCCCCCN1C(=O)C(O)=C(c2ccc(C(F)(F)F)cc2)C1[C@H](O)c1ccccc1` (stereo partly drawn) [Compound 50, 1-Hexyl-3-hydroxy-5-((R)-hydroxy(phenyl)methyl)-4-(4-(trifluoromethyl)phenyl)-1,5-dihydro-2H-pyrrol-2-one], the minimal inhibitory concentration (MIC) with MSSA (ATCC 25923), in the test with S. aureus 29213 (setting [1]) and against MRSA (ATCC 33591) was above 128 µg/mL in each case.
For the molecule `CCC1C(c2ccc(C(F)(F)F)cc2)=C(O)C(=O)N1CCSCCN` (stereo not drawn) [Compound 36], the minimum inhibitory concentration (MIC) in the test on MSSA (ATCC 25923), in the test with S. aureus 29213 (setting [1]) and against MRSA (ATCC 33591) was above 128 µg/mL each time.
Consider `O=C1C(O)=C(c2ccc(C(F)(F)F)cc2)C([C@H](O)c2ccccc2)N1c1ccc(I)cc1` (stereo partly drawn) [Compound 55, 3-Hydroxy-5-((R)-hydroxy(phenyl)methyl)-1-(4-iodophenyl)-4-(4-(trifluoromethyl)phenyl)-1,5-dihydro-2H-pyrrol-2-one], for which the MIC in the test on MSSA (ATCC 25923) was 2 to 4 µg/mL (≈ 3.63 to 7.26 µM); in the test with S. aureus 29213 (setting [1]), 2 µg/mL (≈ 3.63 µM); against MRSA (ATCC 33591), 4 µg/mL (≈ 7.26 µM).

For orientation: MIC means the lowest concentration that inhibits growth of the organism.
